Converted amounts (≈) assume the structure as drawn.
Key:
[1] = biological target: Platelet-derived growth factor receptor beta (Homo sapiens, UniProt P09619); test: Inhibition of PDGFRbeta (unknown origin)
[2] = biological target: T1, Vascular endothelial growth factor receptor 2 (Homo sapiens, UniProt P35968); test: Inhibition of human VEGFR2 in presence of ATP by mobility shift assay
NFS-60 [3] = test: Growth inhibition of mouse NFS-60 cells; type: functional
[4] = Metabolic stability in mouse liver microsomes assessed as half life; type: ADME, Microsome
[5] = Unbound fraction in mouse plasma; type: ADME, cell-free
[6] = Solubility of compound in PBS at pH 7.4; type: physicochemical
[7] = biological target: T2, Macrophage colony-stimulating factor 1 receptor (Homo sapiens, UniProt P07333); test: Binding affinity to CSF1R (unknown origin) assessed as dissociation constant
T2 sequence (P07333 whole entry): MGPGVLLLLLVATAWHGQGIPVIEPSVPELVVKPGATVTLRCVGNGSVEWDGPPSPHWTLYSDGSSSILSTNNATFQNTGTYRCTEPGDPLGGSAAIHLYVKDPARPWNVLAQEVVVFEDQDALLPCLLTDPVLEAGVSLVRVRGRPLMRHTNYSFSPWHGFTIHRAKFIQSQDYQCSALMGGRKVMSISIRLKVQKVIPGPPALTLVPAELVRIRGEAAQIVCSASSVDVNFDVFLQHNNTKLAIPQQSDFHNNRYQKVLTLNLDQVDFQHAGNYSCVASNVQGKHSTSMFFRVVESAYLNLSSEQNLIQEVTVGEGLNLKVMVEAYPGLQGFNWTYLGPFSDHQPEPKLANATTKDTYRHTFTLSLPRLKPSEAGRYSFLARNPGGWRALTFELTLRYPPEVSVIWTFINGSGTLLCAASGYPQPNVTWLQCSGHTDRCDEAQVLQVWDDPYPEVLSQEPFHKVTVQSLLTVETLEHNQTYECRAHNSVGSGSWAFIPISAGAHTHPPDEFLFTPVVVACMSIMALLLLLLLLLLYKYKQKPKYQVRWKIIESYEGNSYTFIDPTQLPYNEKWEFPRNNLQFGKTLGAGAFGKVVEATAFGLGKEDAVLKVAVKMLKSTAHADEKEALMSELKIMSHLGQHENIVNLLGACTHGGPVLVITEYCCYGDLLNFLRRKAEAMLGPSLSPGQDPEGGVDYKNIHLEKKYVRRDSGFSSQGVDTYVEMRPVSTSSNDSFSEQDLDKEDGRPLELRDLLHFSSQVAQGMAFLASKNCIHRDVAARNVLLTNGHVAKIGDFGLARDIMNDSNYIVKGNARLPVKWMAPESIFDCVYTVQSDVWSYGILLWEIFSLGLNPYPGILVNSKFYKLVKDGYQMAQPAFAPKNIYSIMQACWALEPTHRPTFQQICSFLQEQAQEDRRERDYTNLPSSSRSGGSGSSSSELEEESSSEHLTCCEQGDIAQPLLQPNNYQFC

[8] = biological target: Receptor-type tyrosine-protein kinase FLT3 (Homo sapiens, UniProt P36888); test: Binding affinity to human FLT3 assessed as dissociation constant
[9] = Oral bioavailability in CD-1 mouse at 3 mg/kg; type: ADME, organism-based; settings: in vivo
[10] = Oral bioavailability in Sprague-Dawley rat at 10 mg/kg by LC-MS/MS analysis; type: ADME, organism-based; settings: in vivo
[11] = Half life in Sprague-Dawley rat at 10 mg/kg, po or 1 mg/kg, iv by LC-MS/MS analysis; type: ADME, organism-based; settings: in vivo
[12] = Inhibition of FGFR (unknown origin); design: species or system Homo sapiens
EMT6 = test: Antitumor activity against mouse EMT6 cells allografted in BALB/c mouse assessed as reduction in tumor growth inhibition administered via oral gavage relative to control; type: functional
[13] = Inhibition of human CSF1R-autoinhibited by discoverX kinome scan assay
[14] = biological target: T2, Macrophage colony-stimulating factor 1 receptor; test: Inhibition of CSF1R (unknown origin) preincubated for 60 mins measured after 1 hr by ADP-Glo assay
[15] = biological target: T3, Macrophage colony-stimulating factor 1 receptor (Mus musculus, UniProt P09581); test: Inhibition of CSF1R in mouse BMDM cells; type: cell-based
T3 sequence (P09581 whole entry): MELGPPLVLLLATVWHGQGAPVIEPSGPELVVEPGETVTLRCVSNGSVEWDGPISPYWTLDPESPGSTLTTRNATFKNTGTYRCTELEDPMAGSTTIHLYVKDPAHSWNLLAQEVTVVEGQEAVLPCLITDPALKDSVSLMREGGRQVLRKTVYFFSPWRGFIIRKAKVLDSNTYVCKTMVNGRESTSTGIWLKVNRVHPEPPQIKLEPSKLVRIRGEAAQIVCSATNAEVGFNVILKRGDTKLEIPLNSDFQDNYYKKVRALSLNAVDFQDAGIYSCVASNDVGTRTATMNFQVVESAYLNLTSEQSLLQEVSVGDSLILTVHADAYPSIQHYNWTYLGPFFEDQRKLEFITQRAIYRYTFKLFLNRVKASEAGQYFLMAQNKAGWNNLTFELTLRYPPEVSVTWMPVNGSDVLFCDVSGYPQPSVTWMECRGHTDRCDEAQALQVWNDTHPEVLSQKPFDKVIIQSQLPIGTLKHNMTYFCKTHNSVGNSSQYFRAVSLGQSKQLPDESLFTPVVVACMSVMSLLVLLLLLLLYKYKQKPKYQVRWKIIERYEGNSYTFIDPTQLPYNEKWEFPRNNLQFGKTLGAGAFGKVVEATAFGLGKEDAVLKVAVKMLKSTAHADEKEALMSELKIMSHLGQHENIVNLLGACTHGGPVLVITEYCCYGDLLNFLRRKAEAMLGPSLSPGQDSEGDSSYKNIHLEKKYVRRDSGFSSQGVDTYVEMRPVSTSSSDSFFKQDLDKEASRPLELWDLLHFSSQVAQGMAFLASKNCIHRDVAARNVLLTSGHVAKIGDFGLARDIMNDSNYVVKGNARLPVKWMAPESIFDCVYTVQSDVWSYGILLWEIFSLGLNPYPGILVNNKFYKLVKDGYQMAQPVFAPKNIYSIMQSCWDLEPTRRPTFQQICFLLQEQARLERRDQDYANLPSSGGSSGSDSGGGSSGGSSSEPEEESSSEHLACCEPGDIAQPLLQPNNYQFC

ID8 = test: Cytotoxicity against mouse ID8 cells; type: functional
[16] = biological target: Mast/stem cell growth factor receptor Kit (Homo sapiens, UniProt P10721); test: Inhibition of c-KIT (unknown origin) using TK as substrate incubated for 50 mins in presence of ATP by HTRF method
[17] = biological target: Receptor-type tyrosine-protein kinase FLT3 (Homo sapiens, UniProt P36888, ITD); test: Inhibition of FLT3-ITD mutant phosphorylation in human HEK-293T cells incubated for 2 hrs; type: cell-based
Sequence of Receptor-type tyrosine-protein kinase FLT3 (Homo sapiens, UniProt P36888, ITD) (P36888 whole entry, looked up, stated change not applied): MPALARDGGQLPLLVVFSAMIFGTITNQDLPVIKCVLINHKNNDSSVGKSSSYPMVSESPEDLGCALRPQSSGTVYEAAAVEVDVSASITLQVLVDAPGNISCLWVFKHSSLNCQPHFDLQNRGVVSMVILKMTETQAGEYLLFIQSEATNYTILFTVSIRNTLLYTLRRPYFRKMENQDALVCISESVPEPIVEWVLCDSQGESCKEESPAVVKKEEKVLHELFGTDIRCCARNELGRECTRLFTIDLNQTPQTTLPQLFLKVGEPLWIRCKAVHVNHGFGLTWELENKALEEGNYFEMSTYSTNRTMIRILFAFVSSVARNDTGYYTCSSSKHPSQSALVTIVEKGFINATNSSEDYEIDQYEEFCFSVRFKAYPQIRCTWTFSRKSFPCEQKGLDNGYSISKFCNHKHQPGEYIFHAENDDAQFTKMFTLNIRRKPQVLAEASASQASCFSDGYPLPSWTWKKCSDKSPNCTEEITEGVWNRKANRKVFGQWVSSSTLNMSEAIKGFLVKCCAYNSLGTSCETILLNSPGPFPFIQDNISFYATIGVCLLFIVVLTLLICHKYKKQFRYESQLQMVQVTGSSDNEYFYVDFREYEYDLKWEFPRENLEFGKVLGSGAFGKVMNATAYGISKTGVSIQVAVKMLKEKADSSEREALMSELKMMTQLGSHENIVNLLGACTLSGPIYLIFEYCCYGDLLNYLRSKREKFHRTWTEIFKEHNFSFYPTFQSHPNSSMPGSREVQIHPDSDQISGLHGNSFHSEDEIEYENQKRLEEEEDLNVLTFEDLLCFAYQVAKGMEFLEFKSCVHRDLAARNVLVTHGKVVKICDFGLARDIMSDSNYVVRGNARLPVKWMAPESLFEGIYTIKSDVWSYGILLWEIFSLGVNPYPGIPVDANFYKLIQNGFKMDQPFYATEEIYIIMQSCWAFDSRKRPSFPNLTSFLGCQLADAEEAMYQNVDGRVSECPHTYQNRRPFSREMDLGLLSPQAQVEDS

NFS-60 [18] = test: Cytotoxicity against mouse NFS-60 cells assessed as cell growth inhibition incubated for 72 hrs by Cell titer-glo assay; settings: NFS-60, 72 h
NFS-60 [19] = test: Growth inhibition of mouse NFS-60 cells incubated for 72 hrs by Cell titer-glo assay; type: functional
[20] = Cytotoxicity against mouse RAW264.7 cells assessed as reduction in cell viability incubated for 48 hrs by MTT assay; type: toxicity, cell-based
[21] = biological target: T1, Vascular endothelial growth factor receptor 2; test: Inhibition of KDR (unknown origin) using peptide as substrate incubated for 90 mins in presence of ATP by HTRF method
[22] = biological target: RAF proto-oncogene serine/threonine-protein kinase (Homo sapiens, UniProt P04049); test: Inhibition of c-RAF (unknown origin)
Sequence of RAF proto-oncogene serine/threonine-protein kinase (P04049 whole entry): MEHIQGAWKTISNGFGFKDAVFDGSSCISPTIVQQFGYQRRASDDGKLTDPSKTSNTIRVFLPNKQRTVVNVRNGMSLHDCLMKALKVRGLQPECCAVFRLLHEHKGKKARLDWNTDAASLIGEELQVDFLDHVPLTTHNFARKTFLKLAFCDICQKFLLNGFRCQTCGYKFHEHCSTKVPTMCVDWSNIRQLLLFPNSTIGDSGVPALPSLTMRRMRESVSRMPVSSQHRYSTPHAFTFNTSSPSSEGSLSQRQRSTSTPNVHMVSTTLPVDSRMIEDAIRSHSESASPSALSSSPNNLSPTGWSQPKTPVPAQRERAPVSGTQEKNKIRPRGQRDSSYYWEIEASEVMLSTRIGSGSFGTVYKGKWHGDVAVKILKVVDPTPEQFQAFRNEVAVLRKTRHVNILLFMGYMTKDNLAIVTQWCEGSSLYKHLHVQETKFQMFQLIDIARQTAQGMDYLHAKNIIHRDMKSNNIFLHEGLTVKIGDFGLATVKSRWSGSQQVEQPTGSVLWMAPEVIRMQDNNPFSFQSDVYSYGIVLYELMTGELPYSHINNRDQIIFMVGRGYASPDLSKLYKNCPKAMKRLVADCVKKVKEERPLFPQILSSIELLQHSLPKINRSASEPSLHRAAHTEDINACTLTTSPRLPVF

[23] = biological target: Tyrosine-protein kinase Lck (Homo sapiens, UniProt P06239); test: Inhibition of LCK (unknown origin)
Sequence of Tyrosine-protein kinase Lck (P06239 whole entry): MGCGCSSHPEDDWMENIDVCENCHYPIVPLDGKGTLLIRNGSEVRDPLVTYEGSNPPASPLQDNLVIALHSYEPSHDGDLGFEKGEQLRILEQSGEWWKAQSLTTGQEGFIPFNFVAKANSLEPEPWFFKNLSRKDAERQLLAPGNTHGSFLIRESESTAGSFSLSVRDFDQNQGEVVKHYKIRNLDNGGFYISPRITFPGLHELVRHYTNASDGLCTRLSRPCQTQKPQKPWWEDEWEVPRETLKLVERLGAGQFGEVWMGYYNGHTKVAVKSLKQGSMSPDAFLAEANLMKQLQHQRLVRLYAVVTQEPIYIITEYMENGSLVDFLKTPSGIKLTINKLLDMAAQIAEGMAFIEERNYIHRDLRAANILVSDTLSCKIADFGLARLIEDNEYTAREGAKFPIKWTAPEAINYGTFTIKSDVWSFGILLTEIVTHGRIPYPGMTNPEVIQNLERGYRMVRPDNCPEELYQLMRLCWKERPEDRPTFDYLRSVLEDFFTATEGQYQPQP

[24] = biological target: T3, Macrophage colony-stimulating factor 1 receptor; test: Inhibition of CSF1R autophosphorylation in mouse RAW264.7 cells measured after 4 hrs by Western blot analysis; type: cell-based
CT26 = test: Antiproliferative activity against mouse CT26 cells assessed as inhibition of cell growth measured after 6 days by MTT assay; type: functional, cell-based; settings: CT26, 144 h
[25] = biological target: T4, Tyrosine-protein kinase Mer (Homo sapiens, UniProt Q12866); test: Inhibition of human MERTK by discoverX kinome scan assay
T4 sequence (Q12866 whole entry): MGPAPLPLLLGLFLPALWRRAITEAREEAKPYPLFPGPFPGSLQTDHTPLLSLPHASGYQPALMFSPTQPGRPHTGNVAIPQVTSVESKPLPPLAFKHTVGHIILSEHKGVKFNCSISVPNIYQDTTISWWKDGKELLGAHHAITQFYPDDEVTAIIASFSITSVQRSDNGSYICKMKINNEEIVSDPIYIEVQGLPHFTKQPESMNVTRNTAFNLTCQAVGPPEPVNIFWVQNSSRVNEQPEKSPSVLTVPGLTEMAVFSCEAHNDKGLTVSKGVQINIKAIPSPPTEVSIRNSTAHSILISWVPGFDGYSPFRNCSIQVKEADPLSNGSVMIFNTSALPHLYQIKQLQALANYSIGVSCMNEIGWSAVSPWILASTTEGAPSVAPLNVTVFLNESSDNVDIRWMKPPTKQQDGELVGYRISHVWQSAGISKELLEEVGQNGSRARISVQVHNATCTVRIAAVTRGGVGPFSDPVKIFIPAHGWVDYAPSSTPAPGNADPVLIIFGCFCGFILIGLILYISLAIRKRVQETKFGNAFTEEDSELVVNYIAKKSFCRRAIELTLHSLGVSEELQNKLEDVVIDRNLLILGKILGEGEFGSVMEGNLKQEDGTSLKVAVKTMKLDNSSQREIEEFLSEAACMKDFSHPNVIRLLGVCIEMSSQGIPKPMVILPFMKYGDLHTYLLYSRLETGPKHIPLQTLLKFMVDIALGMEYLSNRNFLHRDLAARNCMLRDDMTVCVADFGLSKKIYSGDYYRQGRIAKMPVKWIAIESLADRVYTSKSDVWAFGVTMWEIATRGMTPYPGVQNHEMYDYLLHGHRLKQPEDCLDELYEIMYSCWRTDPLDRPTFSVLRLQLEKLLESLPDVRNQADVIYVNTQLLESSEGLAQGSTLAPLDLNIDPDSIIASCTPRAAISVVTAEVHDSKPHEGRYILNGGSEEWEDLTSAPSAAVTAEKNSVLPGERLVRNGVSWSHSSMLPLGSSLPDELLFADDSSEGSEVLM

[26] = biological target: Vascular endothelial growth factor receptor 1 (Homo sapiens, UniProt P17948); test: Inhibition of VEGFR1 (unknown origin)
[27] = biological target: T1, Vascular endothelial growth factor receptor 2; test: Inhibition of VEGFR2 (unknown origin)
[28] = biological target: T3, Macrophage colony-stimulating factor 1 receptor; test: Inhibition of CSF1R in mouse RAW264.7 cells assessed as reduction in AKT phosphorylation measured after 4 hrs by Western blot analysis; type: cell-based
HUVEC [29] = test: Antiproliferative activity against VEGF stimulated HUVEC cells assessed as reduction in cell viability incubated for 72 hrs by MTT assay; settings: Homo sapiens
HUVEC [30] = test: Antiproliferative activity against FGF stimulated HUVEC cells assessed as reduction in cell viability incubated for 72 hrs by MTT assay; settings: Homo sapiens
MC-38 = test: Antitumor activity against mouse MC38 cells allografted in C57BL/6 mouse assessed as reduction in tumor volume at 5 to 10 mg/kg administered via oral gavage for 21 days relative to control; type: functional; design: scale not given: the % may be the effect or the level left; settings: dose 5-10 mg/kg, time 21 day

T1 sequence (P35968 whole entry): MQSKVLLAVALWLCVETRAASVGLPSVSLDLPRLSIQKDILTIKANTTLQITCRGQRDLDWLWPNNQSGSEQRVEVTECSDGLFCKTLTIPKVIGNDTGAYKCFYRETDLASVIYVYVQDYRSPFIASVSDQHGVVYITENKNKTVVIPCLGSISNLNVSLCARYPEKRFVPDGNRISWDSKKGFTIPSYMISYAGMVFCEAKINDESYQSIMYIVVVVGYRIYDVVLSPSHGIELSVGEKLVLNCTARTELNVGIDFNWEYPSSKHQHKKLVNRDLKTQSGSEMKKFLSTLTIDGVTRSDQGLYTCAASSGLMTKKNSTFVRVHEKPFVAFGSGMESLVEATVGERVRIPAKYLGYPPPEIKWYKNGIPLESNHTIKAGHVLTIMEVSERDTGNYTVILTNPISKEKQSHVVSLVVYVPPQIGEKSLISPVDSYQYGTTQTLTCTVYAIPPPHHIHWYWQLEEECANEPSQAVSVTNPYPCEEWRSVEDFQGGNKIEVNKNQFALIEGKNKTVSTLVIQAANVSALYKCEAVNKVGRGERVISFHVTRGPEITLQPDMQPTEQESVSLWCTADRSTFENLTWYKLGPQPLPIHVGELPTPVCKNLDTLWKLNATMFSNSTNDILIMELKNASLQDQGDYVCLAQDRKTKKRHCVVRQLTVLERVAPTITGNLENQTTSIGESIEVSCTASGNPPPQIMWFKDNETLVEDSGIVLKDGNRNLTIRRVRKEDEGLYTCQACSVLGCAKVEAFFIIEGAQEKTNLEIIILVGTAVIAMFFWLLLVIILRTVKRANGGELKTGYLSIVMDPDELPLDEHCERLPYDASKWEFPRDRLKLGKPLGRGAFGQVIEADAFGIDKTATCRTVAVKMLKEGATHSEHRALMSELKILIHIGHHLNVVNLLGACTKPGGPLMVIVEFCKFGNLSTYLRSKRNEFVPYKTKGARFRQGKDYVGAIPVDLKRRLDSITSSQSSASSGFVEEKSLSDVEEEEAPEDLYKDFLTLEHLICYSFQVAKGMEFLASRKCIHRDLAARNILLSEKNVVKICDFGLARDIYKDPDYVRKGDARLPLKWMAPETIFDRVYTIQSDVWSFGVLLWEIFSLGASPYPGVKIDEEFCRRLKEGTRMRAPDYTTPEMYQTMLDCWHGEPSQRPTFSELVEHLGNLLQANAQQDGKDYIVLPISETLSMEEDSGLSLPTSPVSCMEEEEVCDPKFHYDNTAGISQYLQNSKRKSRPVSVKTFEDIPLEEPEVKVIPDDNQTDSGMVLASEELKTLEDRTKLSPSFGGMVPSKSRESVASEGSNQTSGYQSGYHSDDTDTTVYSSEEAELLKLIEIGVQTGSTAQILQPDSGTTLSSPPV

Structure (SMILES): CNC(=O)c1cccc2cc(Oc3ccnc(NC(=O)c4ccc(N5C[C@@H](C)N[C@@H](C)C5)cc4)c3)ccc12
- IC50 [1]: < 10 nM
- IC50 [2]: < 10 nM

Structure (SMILES): Cc1cccc(Cn2nc(C)c3c(NC(=O)c4csc5c(N)ncnc45)cccc32)n1
- GI50 (NFS-60 [3]): 80 nM

Structure (SMILES): COc1ccc(N(C(=O)Nc2c(C)cccc2C)c2cc(Nc3ccc(N4CCN(C)CC4)cc3)ncn2)c(OC)c1
- half-life [4]: > 2 h

Structure (SMILES): COc1ccc(N2C(=O)N(c3c(C)cccc3Cl)Cc3cnc(Nc4ccc(C5CCN(C)CC5)cc4OC)nc32)nc1
- fraction unbound [5]: 0.06
- solubility [6]: 428 µM (≈ 257 µg/mL)

Structure (SMILES): CN1CCN(c2ccc(C(=O)Nc3n[nH]c4cc(OCCOCc5ccc(C(F)(F)F)cc5)ccc34)cc2)CC1
- Kd [7]: < 1 nM
- Kd [8]: < 1 nM

Structure (SMILES): Cn1cc(-c2cc(Oc3ccc(NC(=O)N4CCC5(CCC5)C4=O)nc3)ccn2)cn1
- bioavailability [9]: 100%

Structure (SMILES): CNc1ccc(-c2cnc(Nc3cnc(C4CC4)nc3)cc2C)c2c1C(=O)NC2
- bioavailability [10]: 106%
- half-life [11]: 2.53 h

Structure (SMILES): COc1cc(OC)c(Cl)c(-c2ccc3c(NC(=O)c4ccc(N5CCNC(C)(C)C5)cc4)n[nH]c3n2)c1Cl
- IC50 [12]: 17.3 nM

Structure (SMILES): CCn1cc(OCC(F)(F)F)c(C(=O)Nc2ccc(Oc3ccnc4cc(OC)c(OC)cc34)cn2)n1
- Kd [7]: < 100 nM
- TGI (EMT6): >50%

Structure (SMILES): Cn1cc(-c2cc(Cc3ccc(NC(=O)NC(=O)C(C)(C)C)nc3)ccn2)cn1
- IC50 [13]: 23.4 nM
- IC50 [14]: 23.4 nM

Structure (SMILES): Cn1cc(-c2cc(Oc3ccc(NC(=O)N4CCC5(CCC(F)(F)CC5)C4=O)nc3)ccn2)cn1
- bioavailability [9]: 100%

Structure (SMILES): Cc1cc(NC(=O)c2cccc3cc(-c4cccc5[nH]nc(N)c45)ccc23)ccc1F
- IC50 [15]: 93 nM

Structure (SMILES): Cc1cccc(Cn2nc(C3CC3)c3c(NC(=O)c4cnc5cc(OCCN6CCN(C)CC6)ccn45)cccc32)n1 [ARRY-382]
- ED50 (ID8): 3 mg/kg

Structure (SMILES): CC1(C)CC=C(c2nc(C3CC(C)(C)OC(C)(C)C3)ccc2NC(=O)c2nc(C#N)c[nH]2)CC1 [EDICOTINIB]
- IC50 [16]: 20 nM
- IC50 [17]: 190 nM

Structure (SMILES): Cc1ccc(F)c(NC(=O)Nc2ccc(-c3cccc4[nH]nc(N)c34)cc2)c1 [LINIFANIB]
- IC50 (NFS-60 [18]): 30 nM
- GI50 (NFS-60 [19]): 4400 nM
- IC50 at 48 h [20]: 8600 nM

Structure (SMILES): O=C(Nc1ccc(OC(F)(F)F)cc1)c1sccc1NCc1ccnc2ccccc12 [OSI-930]
- IC50 [21]: 15 nM
- IC50 [22]: 15 nM
- IC50 [23]: 15 nM

Structure (SMILES): COc1ncc(F)cc1CNc1ccc(Cc2c[nH]c3ncc(C)cc23)c(F)n1 [PLX-5622]
- IC50 [24]: 26 nM

Structure (SMILES): CNC(=O)c1cc(Oc2ccc3nc(N[C@@H]4CCCC[C@H]4O)sc3c2)ccn1 [SOTULETINIB]
- IC50 (CT26): 1 nM

Structure (SMILES): CCN(CC)CCNC(=O)c1c(C)[nH]c(/C=C2\C(=O)Nc3ccc(F)cc32)c1C [SUNITINIB]
- IC50 [15]: 4.1 nM

Structure (SMILES): Cc1cc2cc(Oc3ccnc(Nc4cccc(CS(=O)(=O)NCCN(C)C)c4)n3)ccc2[nH]1 [SURUFATINIB]
- IC50 [25]: 4 nM
- IC50 [26]: 1 nM
- IC50 [27]: 1 nM
- IC50 [28]: 79 nM
- IC50 (HUVEC [29]): < 50 nM
- IC50 (HUVEC [30]): < 50 nM

Structure (SMILES): Cc1nc(-c2cnc(NC(C)C)n(C)c2=O)ccc1Oc1ccnc(-c2cnn(C)c2)c1 [VIMSELTINIB]
- Activity (MC-38): 67%

From ChEMBL document CHEMBL5620341, “CSF1R inhibitors are emerging immunotherapeutic drugs for cancer treatment” (Eur J Med Chem, 2023)
